Each structure is given as a SMILES string. Numbering of substitutions follows the chain as printed.

This is an account of results in patent US20260234157A1, “COMPOUND AND METHOD FOR TARGETED DEGRADATION OF ANDROGEN RECEPTOR” (Gan & Lee Pharmaceuticals Co., Ltd., priority 2023, published 2026).

The first test deals with T1, AR protein (Homo sapiens, UniProt P10275, T878A).
T1 construct: degradation activity of the compounds disclosed in the present disclosure on AR protein in LNCaP cells; host or cells: LNCaP FGC
T1 sequence (P10275 1-920 T878A): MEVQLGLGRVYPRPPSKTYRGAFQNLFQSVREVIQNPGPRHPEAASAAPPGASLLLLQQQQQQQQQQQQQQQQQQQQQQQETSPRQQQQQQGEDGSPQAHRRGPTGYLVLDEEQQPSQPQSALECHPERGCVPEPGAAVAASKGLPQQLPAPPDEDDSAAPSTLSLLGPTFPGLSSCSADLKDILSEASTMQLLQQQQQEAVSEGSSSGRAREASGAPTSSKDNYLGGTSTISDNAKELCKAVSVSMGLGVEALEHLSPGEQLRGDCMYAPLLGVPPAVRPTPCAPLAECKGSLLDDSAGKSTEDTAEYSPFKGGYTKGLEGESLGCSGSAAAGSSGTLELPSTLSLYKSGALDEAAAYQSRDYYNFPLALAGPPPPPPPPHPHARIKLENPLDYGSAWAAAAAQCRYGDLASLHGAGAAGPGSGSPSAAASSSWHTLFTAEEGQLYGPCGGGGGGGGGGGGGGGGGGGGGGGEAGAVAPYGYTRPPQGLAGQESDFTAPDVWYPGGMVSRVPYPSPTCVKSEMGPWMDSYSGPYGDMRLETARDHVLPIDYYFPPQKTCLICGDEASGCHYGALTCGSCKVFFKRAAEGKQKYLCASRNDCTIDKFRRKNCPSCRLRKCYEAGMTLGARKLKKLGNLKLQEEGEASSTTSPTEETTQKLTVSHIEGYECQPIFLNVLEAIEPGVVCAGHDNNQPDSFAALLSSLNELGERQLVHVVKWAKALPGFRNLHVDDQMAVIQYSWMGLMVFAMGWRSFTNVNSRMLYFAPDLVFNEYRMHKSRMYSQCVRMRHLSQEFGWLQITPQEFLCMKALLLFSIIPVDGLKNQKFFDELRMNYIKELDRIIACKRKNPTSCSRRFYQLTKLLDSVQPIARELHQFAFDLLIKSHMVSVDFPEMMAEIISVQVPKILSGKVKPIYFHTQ
The test is described as follows: Degradation of AR protein in LNCaP cells (Western blot). It is filed as cell-based. Particulars: LNCaP cells, compound 10 nM, 8 hours, Western blot grayscale, GAPDH internal reference; read-out: Degradation rates of the AR protein in LNCaP cells, 10 nM (%). How it is done: The degradation activity of the compounds disclosed in the present disclosure on AR protein in LNCaP cells (cell source: ATCC)
(§1) Corresponding solvent controls were also set and cultured for 8 hours. After 8 hours of cultivation, the culture medium was removed and the cells were washed with PBS. RIPA lysis buffer containing 1% Protease Inhibitor Cocktail was added, and the total protein extract was obtained by lysis and centrifugation. The protein concentration in the extract was detected by BCA method. Protein electrophoresis was performed using SDS-PAGE, followed by transfer of the protein onto a PVDF (Millipore Sigma catalog No. PSRP010R5) membrane at 100V constant voltage for 60 minutes. The PVDF membrane was then placed in a 1×TBST solution with 5% milk and blocked at room temperature for 1 hour. […] The primary antibody solution was discarded and the PVDF membrane was washed three times with 1×TBST for 5 minutes/time. […] The secondary antibody solution was discarded and the PVDF membrane was washed three times with 1×TBST for 5 minutes/time. Western blot imaging was performed by using a dual color infrared laser imaging system (Licor catalog No. Odyssey CLX). Bands were analyzed in grayscale using Image Studio software. For each sample, GAPDH protein bands were detected as internal reference. The degradation rates of the AR protein for the compounds and the positive control sample were calculated based on grayscale of the protein bands.
(In western blotting, separated proteins are transferred to a membrane and probed.)
As for `N#Cc1ccc(O[C@H]2CC[C@H](NC(=O)c3ccc(N4CC5(CCC(N6CCC7(CCc8ccc9c(c8O7)CN(C7CCC(=O)NC7=O)C9=O)CC6)CC5)C4)nn3)CC2)cc1Cl` (some centres unmarked) [Compound 153], the inhibition at 0.01 µM was found to be 23%.

Consider `N#Cc1ccc(O[C@H]2CC[C@H](NC(=O)c3ccc(N4CCC(F)(CN5CCC6(CCc7ccc8c(c7O6)CN(C6CCC(=O)NC6=O)C8=O)CC5)CC4)nn3)CC2)cc1Cl` (some centres unmarked) [Compound 166], for which the inhibition at 0.01 µM was found to be 36%.

Consider `N#Cc1ccc(O[C@H]2CC[C@H](NC(=O)c3ccc(N4CCC5(CC4)CC(N4CCC6(CC4)COc4c(ccc7c4C(=O)N(C4CCC(=O)NC4=O)C7)C6)C5)nn3)CC2)cc1Cl` (some centres unmarked) [Compound 188], for which the inhibition at 0.01 µM came to 68%.

Staying with this test, now noted: LNCaP cells, compound 100 nM, 8 hours, Western blot grayscale, GAPDH internal reference; read-out: Degradation rates of the AR protein in LNCaP cells, 100 nM (%).
Consider `N#Cc1ccc(O[C@H]2CC[C@H](NC(=O)c3ccc(N4CC5(CCC(N6CCC7(CCc8ccc9c(c8O7)CN(C7CCC(=O)NC7=O)C9=O)CC6)CC5)C4)nn3)CC2)cc1Cl` (some centres unmarked) [Compound 153], for which the inhibition at 0.1 µM worked out at 19%.

In the case of `N#Cc1ccc(O[C@H]2CC[C@H](NC(=O)c3ccc(N4CCC(F)(CN5CCC6(CCc7ccc8c(c7O6)CN(C6CCC(=O)NC6=O)C8=O)CC5)CC4)nn3)CC2)cc1Cl` (some centres unmarked) [Compound 166], the inhibition at 0.1 µM was 19%.

`N#Cc1ccc(O[C@H]2CC[C@H](NC(=O)c3ccc(N4CCC5(CC4)CC(N4CCC6(CC4)COc4c(ccc7c4C(=O)N(C4CCC(=O)NC4=O)C7)C6)C5)nn3)CC2)cc1Cl` (some centres unmarked) [Compound 188]: the inhibition at 0.1 µM turned out to be 66%.

In a further test the target is T2, AR protein (Homo sapiens, UniProt P10275).
T2 construct: degradation activity of the compounds disclosed in the present disclosure on AR protein in VCaP cells; host or cells: VCaP
T2 sequence (P10275 1-920): T1 sequence (P10275 1-920 T878A) with A878T
The test is described as follows: Degradation of AR protein in VCaP cells (Western blot). Particulars: compound at 10 nM, 8 hours. It counts as cell-based. As for the experimental part: The degradation activity of the compounds disclosed in the present disclosure on AR protein in VCaP cells (cell source: ATCC)
as §1
Turning to `N#Cc1ccc(O[C@H]2CC[C@H](NC(=O)c3ccc(N4CCC(F)(CN5CCC6(CCc7ccc8c(c7O6)CN(C6CCC(=O)NC6=O)C8=O)CC5)CC4)nn3)CC2)cc1Cl` (some centres unmarked) [Compound 166], the “Degradation rate of the AR protein in VCaP cells, 10 nM (%)” value came out at 15%.

Still in this test, the particulars now being: compound at 10 nM, 8 hours, read-out: Degradation rate of the AR protein in VCaP cells, 10 nM (%).
Regarding `N#Cc1ccc(O[C@H]2CC[C@H](NC(=O)c3ccc(N4CC5(CCC(N6CCC7(CCc8ccc9c(c8O7)CN(C7CCC(=O)NC7=O)C9=O)CC6)CC5)C4)nn3)CC2)cc1Cl` (some centres unmarked) [Compound 153], the inhibition at 0.01 µM amounted to 35%.

In the case of `N#Cc1ccc(O[C@H]2CC[C@H](NC(=O)c3ccc(N4CCC(F)(CN5CCC6(CCc7ccc8c(c7O6)CN(C6CCC(=O)NC6=O)C8=O)CC5)CC4)nn3)CC2)cc1Cl` (some centres unmarked) [Compound 166], the inhibition at 0.01 µM was 43%.

As for `N#Cc1ccc(O[C@H]2CC[C@H](NC(=O)c3ccc(N4CCC5(CC4)CC(N4CCC6(CC4)COc4c(ccc7c4C(=O)N(C4CCC(=O)NC4=O)C7)C6)C5)nn3)CC2)cc1Cl` (some centres unmarked) [Compound 188], the inhibition at 0.01 µM was 63%.

Staying with this test, now noted: compound at 100 nM, 8 hours.
As for `N#Cc1ccc(O[C@H]2CC[C@H](NC(=O)c3ccc(N4CCC(F)(CN5CCC6(CCc7ccc8c(c7O6)CN(C6CCC(=O)NC6=O)C8=O)CC5)CC4)nn3)CC2)cc1Cl` (some centres unmarked) [Compound 166], the “Degradation rate of the AR protein in VCaP cells, 100 nM (%)” value is reported as 42%.

The same test, now with this note: compound at 100 nM, 8 hours, read-out: Degradation rate of the AR protein in VCaP cells, 100 nM (%).
`N#Cc1ccc(O[C@H]2CC[C@H](NC(=O)c3ccc(N4CC5(CCC(N6CCC7(CCc8ccc9c(c8O7)CN(C7CCC(=O)NC7=O)C9=O)CC6)CC5)C4)nn3)CC2)cc1Cl` (some centres unmarked) [Compound 153]: the inhibition at 0.1 µM was 76%.

Regarding `N#Cc1ccc(O[C@H]2CC[C@H](NC(=O)c3ccc(N4CCC(F)(CN5CCC6(CCc7ccc8c(c7O6)CN(C6CCC(=O)NC6=O)C8=O)CC5)CC4)nn3)CC2)cc1Cl` (some centres unmarked) [Compound 166], the inhibition at 0.1 µM is 60%.

Consider `N#Cc1ccc(O[C@H]2CC[C@H](NC(=O)c3ccc(N4CCC5(CC4)CC(N4CCC6(CC4)COc4c(ccc7c4C(=O)N(C4CCC(=O)NC4=O)C7)C6)C5)nn3)CC2)cc1Cl` (some centres unmarked) [Compound 188], for which the inhibition at 0.1 µM came out at 79%.

A further test concerns LNCaP FGC cells. The test can be described thus: Inhibition of proliferation of LNCaP cells (WST-8). It counts as cell-based. As to conditions: Homo sapiens, LNCaP, 96 h, LNCaP FGC cells, 96 hours, WST-8 absorbance at 450 nm; read-out: IC50 for inhibiting the proliferation of LNCaP cells. How it is done:
The cells were cultured in a cell culture incubator with 5% CO2 at 37° C. overnight. […] On the sixth day, 96 well plates were taken out, and 20 μL of WST-8 (Beytime, C0040) reagent was added to each well.
(In general: Formazan colour is commonly taken as a measure of viable cells.)
As for `N#Cc1ccc(O[C@H]2CC[C@H](NC(=O)c3ccc(N4CC5(CCC(N6CCC7(CCc8ccc9c(c8O7)CN(C7CCC(=O)NC7=O)C9=O)CC6)CC5)C4)nn3)CC2)cc1Cl` (some centres unmarked) [Compound 153], the IC50 is 13.6 µM.

Turning to `N#Cc1ccc(O[C@H]2CC[C@H](NC(=O)c3ccc(N4CCC5(CC4)CC(N4CCC6(CC4)COc4c(ccc7c4C(=O)N(C4CCC(=O)NC4=O)C7)C6)C5)nn3)CC2)cc1Cl` (some centres unmarked) [Compound 188], the IC50 is 3.72 µM.

The same test, now with this note: LNCaP FGC cells, 96 hours, WST-8 absorbance at 450 nm; read-out: IC50 for inhibiting the proliferation of LNCaP cells.
On to `N#Cc1ccc(O[C@H]2CC[C@H](NC(=O)c3ccc(N4CCC(F)(CN5CCC6(CCc7ccc8c(c7O6)CN(C6CCC(=O)NC6=O)C8=O)CC5)CC4)nn3)CC2)cc1Cl` (some centres unmarked) [Compound 166], for which the IC50 worked out at 71.9 µM.
